Consider four cell lines from the supplement of paper PMC10307832.

Assay in all cases: relative viability (nuclei count vs DMSO), 5 days (fraction); higher = more cells survive
Compound in assay [1]: NC(=O)[C@@H](CCC(F)(F)F)N(Cc1ccc(-c2ncon2)cc1F)S(=O)(=O)c1ccc(Cl)cc1 [Avagacestat] + CC(=O)c1c(C)c2cnc(Nc3ccc(N4CCNCC4)cn3)nc2n(C2CCCC2)c1=O [Palbociclib] (partner 0.5 µM)
The procedure, abridged:
(§1)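 After 5 days of treatment, lung cancer cells in 1536-well plates were fixed and stained in a single step (final 0.05% Triton X-100, 1% formaldehyde, 1 ug/ml Hoechst) and their nuclei counted on 4× images. Treatment had been applied by pin tool the day after seeding as one drug alone or as a fixed anchor-drug dose with five library-drug doses (not always all listed) in √10 steps. Relative viability is the nuclei count of treated wells divided by that of vehicle wells, and values are medians of duplicate plates.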

Compound in the assay “Avagacestat + Dasatinib”: NC(=O)[C@@H](CCC(F)(F)F)N(Cc1ccc(-c2ncon2)cc1F)S(=O)(=O)c1ccc(Cl)cc1 [Avagacestat] + Cc1nc(Nc2ncc(C(=O)Nc3c(C)cccc3Cl)s2)cc(N2CCN(CCO)CC2)n1 [Dasatinib] (partner 0.075 µM)
In a few lines: as §1

Compound in the assay “Avagacestat + Alpelisib”: NC(=O)[C@@H](CCC(F)(F)F)N(Cc1ccc(-c2ncon2)cc1F)S(=O)(=O)c1ccc(Cl)cc1 [Avagacestat] + Cc1nc(NC(=O)N2CCC[C@H]2C(N)=O)sc1-c1ccnc(C(C)(C)C(F)(F)F)c1 [Alpelisib] (partner 2 µM)
The procedure, abridged:
as §1

Compound in the assay “Avagacestat + Bortezomib”: NC(=O)[C@@H](CCC(F)(F)F)N(Cc1ccc(-c2ncon2)cc1F)S(=O)(=O)c1ccc(Cl)cc1 [Avagacestat] + CC(C)C[C@H](NC(=O)[C@H](Cc1ccccc1)NC(=O)c1cnccn1)B(O)O [Bortezomib] (partner 0.002 µM)
In a few lines:
as §1

With NCI-H1437, the relative viability in assay [1] (first compound 0.08 µM) stood at 0.329; in assay [1] (first compound 0.253 µM) it was 0.341; in assay [1] (first compound 0.8 µM), 0.361; in assay [1] (first compound 2.53 µM) it was 0.306; in assay [1] (first compound 8 µM), 0.294; in the assay with Avagacestat + Dasatinib (first compound 0.08 µM), 0.283. The relative viability with Avagacestat + Dasatinib (first compound 0.253 µM) is 0.278; in the assay with Avagacestat + Dasatinib (first compound 0.8 µM) it was 0.346; with Avagacestat + Dasatinib (first compound 2.53 µM), 0.291; with Avagacestat + Dasatinib (first compound 8 µM), 0.211; with Avagacestat + Alpelisib (first compound 0.08 µM), 1.22; with Avagacestat + Alpelisib (first compound 0.253 µM), 1.25. Besides, the relative viability with Avagacestat + Alpelisib (first compound 0.8 µM) was 0.921; with Avagacestat + Alpelisib (first compound 2.53 µM), 0.894; in the assay with Avagacestat + Alpelisib (first compound 8 µM), 0.849; in the assay with Avagacestat + Bortezomib (first compound 0.08 µM) it was 0.602; in the assay with Avagacestat + Bortezomib (first compound 0.253 µM), 0.69; with Avagacestat + Bortezomib (first compound 0.8 µM) it was 0.519. Also, the relative viability came to 0.379 with Avagacestat + Bortezomib (first compound 2.53 µM) and 0.282 in the assay with Avagacestat + Bortezomib (first compound 8 µM).
Turning to NCI-H647, the relative viability in assay [1] (first compound 0.08 µM) was determined as 0.456; in assay [1] (first compound 0.253 µM), 0.497; in assay [1] (first compound 0.8 µM) it was 0.486; in assay [1] (first compound 2.53 µM), 0.341; in assay [1] (first compound 8 µM), 0.35; with Avagacestat + Dasatinib (first compound 0.08 µM) it was 0.195. In addition, the relative viability in the assay with Avagacestat + Dasatinib (first compound 0.253 µM) was 0.188; with Avagacestat + Dasatinib (first compound 0.8 µM), 0.232; with Avagacestat + Dasatinib (first compound 2.53 µM) it was 0.118; in the assay with Avagacestat + Dasatinib (first compound 8 µM), 0.147; in the assay with Avagacestat + Alpelisib (first compound 0.08 µM), 1.46; in the assay with Avagacestat + Alpelisib (first compound 0.253 µM) it was 0.994. For the same cell line, the relative viability was 1.3 with Avagacestat + Alpelisib (first compound 0.8 µM); 0.959 with Avagacestat + Alpelisib (first compound 2.53 µM); 0.884 with Avagacestat + Alpelisib (first compound 8 µM); 1.66 with Avagacestat + Bortezomib (first compound 0.08 µM); 1.15 in the assay with Avagacestat + Bortezomib (first compound 0.253 µM); 1.14 in the assay with Avagacestat + Bortezomib (first compound 0.8 µM). The relative viability with Avagacestat + Bortezomib (first compound 2.53 µM) was 1.06; in the assay with Avagacestat + Bortezomib (first compound 8 µM), 0.922.
As to NCI-H838, the relative viability in assay [1] (first compound 0.08 µM) is 0.221; in assay [1] (first compound 0.253 µM), 0.244; in assay [1] (first compound 0.8 µM), 0.226; in assay [1] (first compound 2.53 µM), 0.208; in assay [1] (first compound 8 µM), 0.215; in the assay with Avagacestat + Dasatinib (first compound 0.08 µM), 0.293. Also, the relative viability with Avagacestat + Dasatinib (first compound 0.253 µM) stood at 0.285; with Avagacestat + Dasatinib (first compound 0.8 µM) it was 0.328; with Avagacestat + Dasatinib (first compound 2.53 µM) it was 0.309; with Avagacestat + Dasatinib (first compound 8 µM), 0.253; in the assay with Avagacestat + Alpelisib (first compound 0.08 µM), 1.19; in the assay with Avagacestat + Alpelisib (first compound 0.253 µM), 1.18. Moreover, the relative viability with Avagacestat + Alpelisib (first compound 0.8 µM) is 1.06; with Avagacestat + Alpelisib (first compound 2.53 µM), 0.906; in the assay with Avagacestat + Alpelisib (first compound 8 µM), 0.814; with Avagacestat + Bortezomib (first compound 0.08 µM) it was 0.977; with Avagacestat + Bortezomib (first compound 0.253 µM) it was 0.922; in the assay with Avagacestat + Bortezomib (first compound 0.8 µM) it was 0.93. In addition, the relative viability in the assay with Avagacestat + Bortezomib (first compound 2.53 µM) was 0.863; with Avagacestat + Bortezomib (first compound 8 µM), 0.502.
Regarding NCI-H727, the relative viability turned out to be 0.578 in assay [1] (first compound 0.08 µM); 0.577 in assay [1] (first compound 0.253 µM); 0.606 in assay [1] (first compound 0.8 µM); 0.684 in assay [1] (first compound 2.53 µM); 0.672 in assay [1] (first compound 8 µM); 0.35 with Avagacestat + Dasatinib (first compound 0.08 µM). Moreover, the relative viability in the assay with Avagacestat + Dasatinib (first compound 0.253 µM) worked out at 0.355; in the assay with Avagacestat + Dasatinib (first compound 0.8 µM) it was 0.5; in the assay with Avagacestat + Dasatinib (first compound 2.53 µM), 0.369; in the assay with Avagacestat + Dasatinib (first compound 8 µM), 0.41; in the assay with Avagacestat + Alpelisib (first compound 0.08 µM), 0.749; in the assay with Avagacestat + Alpelisib (first compound 0.253 µM), 0.682. The relative viability with Avagacestat + Alpelisib (first compound 0.8 µM) was found to be 0.695; in the assay with Avagacestat + Alpelisib (first compound 2.53 µM) it was 0.467; with Avagacestat + Alpelisib (first compound 8 µM) it was 0.558; with Avagacestat + Bortezomib (first compound 0.08 µM) it was 0.956; with Avagacestat + Bortezomib (first compound 0.253 µM) it was 0.927; with Avagacestat + Bortezomib (first compound 0.8 µM), 1.04. For the same cell line, the figures for the relative viability with Avagacestat + Bortezomib (first compound 2.53 µM) and with Avagacestat + Bortezomib (first compound 8 µM) were 0.981 and 0.828, respectively.
